Like-named read-outs stand apart in the source and are kept apart here.
Experiments:
[1] = 25° C.; cited from earlier work
Physical property data = assay type: physicochemical
[2] = Toxicity LD50 data and review of MSDS
ASTM D1177 freeze point = assay type: physicochemical
Description: FIG. 1 illustrates the aqueous solution freeze point characteristics of the 1,3-propanediol and GM 6043 (EG). […] This could be an indication that actual protection against hard, damaging freezing is actually better, approaching the effective protection point of the EG-based product. […] We feel that the antifreeze properties of the chemistry are acceptable. Indeed a 50% solution would provide adequate protection against freezing in most geographies. TC in FIG. 1 is an internal designation for the PDO aqueous solutions at 50, 55, and 60 volume percent PDO.

[3] = Extended aging / oxidation comparison on D-4340 rig at 150° C.; assay type: physicochemical; conditions: 150° C. for 60 Days, two fully formulated coolant inhibition packages

Compound	Thermal Conductivity [1] [BTU/hr-ft-F]	Specific Gravity, 20° C. (Physical property data; 20° C.)	Viscosity (Physical property data; 20° C.) [cP]	Specific Gravity, 20° C. (Physical property data)	Viscosity (Physical property data) [cP]	Toxicity [2]	State at the reported freeze point (ASTM D1177 freeze point)	Degradation in terms of pH value and formation of oxidation by-products [3]
CC(O)CO (stereo not shown) [PG, propylene glycol]	0.119	1.032	49	–	–	–	–	–
OCCO [EG, ethylene glycol]	–	–	–	1.115	17	–	–	–
OCCCO [PDO, 1,3-propanediol]	–	1.0526	52	–	–	PDO offers low	soft and slushy	PDO degraded less

— patent US6818146B2, “Chemical base for engine coolant/antifreeze with improved thermal stability properties” (Shell Oil Company, priority 2001, dated 2004)
